Source: patent EP4674849A1, “FLUORESCENT DYE FOR DETECTING NUCLEIC ACID” (Keio University, priority 2023, dated 2024)

Target: deoxyribonucleic acid (derived from salmon sperm) with a length of 500 to 1000 bp
Experiment: DNA binding assay of fluorescent dyes (fluorescence titration, fit to McGhee-von Hippel equation)
Conditions: TE buffer (pH: 8.0); dye 200, 400, 800 nM; DNA 0.5-12 µM; excitation 475 nm, emission 520 nm; read-out: Dissociation constant Kd
Source text: The obtained results were fitted to the McGhee-von Hippel equation (Equation 1) to determine the dissociation constant (Kd) and the number of base pairs at the dye-binding site (N).

CCCN(CCCN(C)C)c1cc(/C=C2/Sc3ccccc3N2C)c2ccccc2[n+]1-c1ccccc1
Kd: 1000 ± 90 nM
